In patent publication US20240148821A1, “PHARMACEUTICAL USE OF CYCLIC PEPTIDE COMPOUND” (CHUGAI SEIYAKU KABUSHIKI KAISHA, priority 2021, published 2024):
Numbered stars: 1 amine (or outer) side, 2 acyl side, 3 side chain; on linkers, the order of the positions; unused ones are H or OH. Bridge positions count the residues as written; N and C are the ends. Square brackets hold non-standard residues; d marks the D form. Peptide text beside a SMILES is read from it. * marks the point of attachment. hPhe(3,5-F2-4-CF3) = N[C@@H](CCc1cc(F)c(C(F)(F)F)c(F)c1)C(=O)O; hPhe(3-Cl-4-CF3) = N[C@@H](CCc1ccc(C(F)(F)F)c(Cl)c1)C(=O)O; hPhe(3-F,4-CF3) = N[C@@H](CCc1ccc(C(F)(F)F)c(F)c1)C(=O)O; NEtPhe(4-CF3) = CCN[C@@H](Cc1ccc(C(F)(F)F)cc1)C(=O)O; NMePhe(4-CF3) = CN[C@@H](Cc1ccc(C(F)(F)F)cc1)C(=O)O; NMeNle(6-CHF2) = CN[C@@H](CCCCC(F)F)C(=O)O; NMedβ3hAla = C[C@H](CC(=O)[*:2])N(C)[*:1]; NMeGly(cPent) = CN[C@H](C(=O)O)C1CCCC1; NMeGly(cBu) = CN[C@H](C(=O)O)C1CCC1; NMeCha = CN[C@@H](CC1CCCCC1)C(=O)O; NMehLeu = CN[C@@H](CCC(C)C)C(=O)O; Hyp = O=C(O)[C@@H]1C[C@@H](O)CN1; NMeF = CN[C@@H](Cc1ccccc1)C(=O)O; NMeI = CC[C@H](C)[C@H](NC)C(=O)O; NMeD = CN[C@@H](CC(=O)O)C(=O)O; NMeL = CN[C@@H](CC(C)C)C(=O)O; d(β3hA) = C[C@@H](N)CC(=O)O; NMeA = CN[C@@H](C)C(=O)O; NMeAib = CNC(C)(C)C(=O)O; Piperidide = C1CCN(*)CC1; Pyrrolidide = C1CCN(*)C1; Ac5c = NC1(C(=O)O)CCCC1; Aze = O=C(O)[C@@H]1CCN1; Ac4c = NC1(C(=O)O)CCC1; Aib = CC(C)(N)C(=O)O; Sar = CNCC(=O)O

Legend:
[1] = target: protein-protein interaction between Kras and SOS1 (biotin-tagged human Kras loaded with GDP, His-tagged human SOS1) (Homo sapiens (Human), UniProt P01116, G12D); assay: Protein-protein interaction inhibition between Kras and SOS1 (KrasG12D-SOS PPI) using AlphaScreen; format: biochemical; details: AlphaScreen; biotin-tagged human Kras loaded with GDP, His-tagged human SOS1; read-out: KRAS G12D-SOS PPI IC50;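 further: kras produced in E. coli, Ni-coupled donor beads and streptavidin acceptor beads, excitation 680 nm with emission detected at 520–620 nm via singlet oxygen transfer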
[2] = test system: Human pancreatic cancer cell line AsPC-1 (G12D mutation Kras); assay: AsPC-1 cell growth inhibition (AsPC-1 CGI); format: cell-based; details: read-out: AsPC-1 cell growth inhibition, 50% growth inhibitory concentration (IC50 value); 96 hours, CellTiter-Glo, values classified in ranges
Protocol: Test compounds were serially dilated with dimethyl sulfoxide, and 200 nL was then dispensed to a U-bottom 96-well plate using Labcyte Echo. […] The cell suspension was dispensed to a. plate containing a test compound at 100 μL per well and incubated at 37° C. in a 5% carbon dioxide gas incubator. 96 hours later, 80 μL of CellTiter-Glo (Promega) was added to each well and fluorescence was measured.

| Structure (SMILES) | IC50 [1] [µM] | IC50 [2] [µM] |
| --- | --- | --- |
| CC[C@H](C)[C@@H]1NC(=O)[C@H](C)N(C)C(=O)C[C@@H](C)NC(=O)[C@H](C2CCCC2)N(C)C(=O)C2(CCCC2)NC(=O)[C@@H]2CCCN2C(=O)[C@H](CCc2ccc(C(F)(F)F)c(Cl)c2)NC(=O)CN(C)C(=O)[C@H](Cc2ccccc2)N(C)C(=O)[C@@H]2CCCN2C(=O)CN(C)C1=O [Compound 1004] (cyclo([Ac5c][NMeGly(cPent)][d(β3hA)][NMeA]I[Sar]P[NMeF][Sar][hPhe(3-Cl-4-CF3)]P)) | 0.013 | > 0.5 |
| CCO[C@@H]1C[C@H]2C(=O)NC3(CCC3)C(=O)N(C)[C@@H](C3CCCC3)C(=O)N(C)[C@H](C)CC(=O)N(C)[C@@H](CC(C)C)C(=O)N[C@@H]([C@@H](C)CC)C(=O)N(C)[C@@H](C)C(=O)N3CC[C@H]3C(=O)N(CC)[C@@H](Cc3ccc(C(F)(F)F)cc3)C(=O)N(C)CC(=O)N[C@@H](CCc3cc(F)c(C(F)(F)F)c(F)c3)C(=O)N2C1 [Compound 132] (cyclo([Ac4c][NMeGly(cPent)][NMedβ3hAla][NMeL]I[NMeA][Aze][NEtPhe(4-CF3)][Sar][hPhe(3,5-F2-4-CF3)][Hyp](Et))) | 0.00096 | ≤ 0.02 |
| CC[C@H](C)[C@@H]1NC(=O)[C@H](C2CCC2)N(C)C(=O)C[C@@H](C(=O)N2CCCCC2)N(C)C(=O)[C@H](C2CCCC2)N(C)C(=O)C2(CCCC2)NC(=O)[C@@H]2CCCN2C(=O)[C@H](CCc2ccc(C(F)(F)F)c(Cl)c2)NC(=O)CN(C)C(=O)[C@H](CC2CCCCC2)N(C)C(=O)[C@@H]2CCN2C(=O)[C@H](C)N(C)C1=O [Compound 270] ([NMeGly(cBu)]I[NMeA][Aze][NMeCha][Sar][hPhe(3-Cl-4-CF3)]P[Ac5c][NMeGly(cPent)][NMeD]-Piperidide; lactam N-11) | 0.00067 | ≤ 0.02 |
| CC[C@H](C)[C@@H]1NC(=O)[C@H](CC(C)C)N(C)C(=O)C[C@@H](C)N(C)C(=O)[C@H](C(C)C)NC(=O)C(C)(C)N(C)C(=O)[C@H](CC(C)C)NC(=O)[C@H](CCc2ccc(C(F)(F)F)c(F)c2)NC(=O)CN(C)C(=O)[C@H](CC2CCCCC2)N(C)C(=O)CN(C)C(=O)CN(C)C1=O [Compound 967] (cyclo(I[Sar][Sar][NMeCha][Sar][hPhe(3-F,4-CF3)]L[NMeAib]V[NMedβ3hAla][NMeL])) | 0.058 | > 0.5 |
| CC[C@H](C)[C@@H]1NC(=O)[C@H](CC(C)C)N(C)C(=O)C[C@@H](C)NC(=O)[C@H](CC(C)C)N(C)C(=O)C(C)(C)NC(=O)[C@H](CC(C)C)N(C)C(=O)[C@H](CCc2ccc(C(F)(F)F)c(Cl)c2)NC(=O)CN(C)C(=O)[C@H](CCCCC(F)F)N(C)C(=O)CN(C)C(=O)CN(C)C1=O [Compound 1451] (cyclo([Aib][NMeL][d(β3hA)][NMeL]I[Sar][Sar][NMeNle(6-CHF2)][Sar][hPhe(3-Cl-4-CF3)][NMeL])) | 0.02 | > 0.5 |
| CC[C@H](C)[C@@H]1NC(=O)[C@H](C)N(C)C(=O)C[C@@H](C)NC(=O)[C@H](CC(C)C)N(C)C(=O)C2(CCCC2)NC(=O)[C@H](CC(C)C)N(C)C(=O)[C@H](CCc2ccc(C(F)(F)F)c(Cl)c2)NC(=O)CN(C)C(=O)[C@H](CC2CCCCC2)N(C)C(=O)CN(C)C(=O)CN(C)C1=O [Compound 61] (cyclo([Ac5c][NMeL][d(β3hA)][NMeA]I[Sar][Sar][NMeCha][Sar][hPhe(3-Cl-4-CF3)][NMeL])) | 0.016 | > 0.5 |
| CC[C@H](C)[C@@H]1NC(=O)[C@H](CCC(C)C)N(C)C(=O)C[C@@H](C(=O)N2CCCC2)N(C)C(=O)[C@H]([C@@H](C)CC)N(C)C(=O)C2(CCCC2)NC(=O)[C@@H]2CCCN2C(=O)[C@H](CCc2ccc(C(F)(F)F)c(Cl)c2)NC(=O)CN(C)C(=O)[C@H](Cc2ccc(C(F)(F)F)cc2)N(C)C(=O)[C@@H]2CCN2C(=O)[C@H](C)NC1=O [Compound 1310] ([NMehLeu]IA[Aze][NMePhe(4-CF3)][Sar][hPhe(3-Cl-4-CF3)]P[Ac5c][NMeI][NMeD]-Pyrrolidide; lactam N-11) | 0.00087 | ≤ 0.02 |
| CC[C@H](C)[C@@H]1NC(=O)[C@H](CC(C)C)N(C)C(=O)C[C@@H](C)N(C)C(=O)[C@H]([C@@H](C)CC)N(C)C(=O)C2(CCCC2)NC(=O)[C@@H]2CCCN2C(=O)[C@H](CCc2ccc(C(F)(F)F)c(Cl)c2)NC(=O)CN(C)C(=O)[C@H](CC2CCCCC2)N(C)C(=O)[C@@H]2CCN2C(=O)[C@H](C)N(C)C1=O [Compound 1733] (cyclo([Ac5c][NMeI][NMedβ3hAla][NMeL]I[NMeA][Aze][NMeCha][Sar][hPhe(3-Cl-4-CF3)]P)) | 0.13 | > 0.5 |
